Reference: ChEMBL document CHEMBL2169823, “cis-4-amino-L-proline residue as a scaffold for the synthesis of cyclic and linear endomorphin-2 analogues: part 2” (J Med Chem, 2012)
pIC50, pKi: −log10 of the molar value.

Experiments:
[1] = target: Mu-type opioid receptor (Homo sapiens, UniProt P35372); assay: Displacement of [3H]DAMGO from mu opioid receptor transfected in […] HN9.10 cells after 3 hrs by liquid scintillation counter; assay type: cell-based
[2] = target: Kappa-type opioid receptor (Homo sapiens, UniProt P41145); assay: Displacement of [3H]U69593 from human kappa opioid receptor expressed in CHO cells after 60 mins by liquid scintillation counter; assay type: cell-based; conditions: for Ki: cho; for pKi: read-out: Ki
Chain of Kappa-type opioid receptor (P41145 whole entry): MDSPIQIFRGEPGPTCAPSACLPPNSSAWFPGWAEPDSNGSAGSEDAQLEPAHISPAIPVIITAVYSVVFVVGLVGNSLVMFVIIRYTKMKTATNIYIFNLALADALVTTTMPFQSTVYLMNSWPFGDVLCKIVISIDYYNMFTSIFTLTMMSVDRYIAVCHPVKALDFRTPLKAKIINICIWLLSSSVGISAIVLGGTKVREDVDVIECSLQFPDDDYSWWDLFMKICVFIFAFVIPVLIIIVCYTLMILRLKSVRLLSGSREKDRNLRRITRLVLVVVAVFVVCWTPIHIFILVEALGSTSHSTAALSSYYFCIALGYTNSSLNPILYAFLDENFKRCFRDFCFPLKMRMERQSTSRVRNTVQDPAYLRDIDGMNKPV

[3] = target: Delta-type opioid receptor (Homo sapiens, UniProt P41143); assay: Displacement of [3H]DPDPE from delta opioid receptor transfected in […] HN9.10 cells after 3 hrs by liquid scintillation counter; assay type: cell-based; conditions: for pKi: read-out: Ki
Chain of Delta-type opioid receptor (Homo sapiens, UniProt P41143) (P41143 whole entry): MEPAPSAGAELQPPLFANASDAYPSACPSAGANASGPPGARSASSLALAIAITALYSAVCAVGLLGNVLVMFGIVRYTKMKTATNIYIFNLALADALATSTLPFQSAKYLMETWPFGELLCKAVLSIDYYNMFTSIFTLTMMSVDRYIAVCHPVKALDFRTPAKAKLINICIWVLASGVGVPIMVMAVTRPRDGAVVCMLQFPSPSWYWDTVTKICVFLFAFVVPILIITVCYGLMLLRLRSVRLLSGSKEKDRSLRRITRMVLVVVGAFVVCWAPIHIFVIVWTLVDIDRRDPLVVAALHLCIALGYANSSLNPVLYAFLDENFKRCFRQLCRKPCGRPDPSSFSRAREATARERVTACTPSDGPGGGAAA

[4] = target: Delta-type opioid receptor (Mus musculus) (UniProt P32300); assay: Agonist activity at delta opioid receptor in ICR mouse vas deferens assessed as inhibition of electrically-induced smooth muscle contraction at 1 uM after 3 mins; assay type: functional, tissue-based
Chain of Delta-type opioid receptor (Mus musculus) (P32300 whole entry): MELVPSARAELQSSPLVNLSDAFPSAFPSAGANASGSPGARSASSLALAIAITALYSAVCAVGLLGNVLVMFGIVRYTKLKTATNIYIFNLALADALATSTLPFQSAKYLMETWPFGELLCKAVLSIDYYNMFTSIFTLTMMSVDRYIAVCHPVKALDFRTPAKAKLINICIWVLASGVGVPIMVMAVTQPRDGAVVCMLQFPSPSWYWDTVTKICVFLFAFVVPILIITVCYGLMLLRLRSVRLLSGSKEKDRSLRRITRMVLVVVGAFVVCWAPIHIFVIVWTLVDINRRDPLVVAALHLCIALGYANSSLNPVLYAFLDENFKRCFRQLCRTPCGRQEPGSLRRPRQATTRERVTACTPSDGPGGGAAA

[5] = target: Mu-type opioid receptor (Cavia porcellus, UniProt P97266); assay: Agonist activity at mu opioid receptor in Hartley guinea pig ileum longitudinal muscle myenteric plexus assessed as inhibition of electrically-induced smooth muscle contraction after 3 mins; assay type: functional, tissue-based
Chain of Mu-type opioid receptor (Cavia porcellus, UniProt P97266) (P97266 whole entry): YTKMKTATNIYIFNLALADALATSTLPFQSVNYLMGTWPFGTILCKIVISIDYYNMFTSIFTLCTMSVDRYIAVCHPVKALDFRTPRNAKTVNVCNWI

[6] = target: Mu-type opioid receptor (Cavia porcellus) (UniProt P97266); assay: Agonist activity at mu opioid receptor in Hartley guinea pig ileum longitudinal muscle myenteric plexus assessed as inhibition of electrically-induced smooth muscle contraction at 1 uM after 3 mins; assay type: functional, tissue-based
Chain of Mu-type opioid receptor (Cavia porcellus) (P97266 whole entry): as above

[7] = target: Delta-type opioid receptor (Mus musculus, UniProt P32300); assay: Agonist activity at delta opioid receptor in ICR mouse vas deferens assessed as inhibition of electrically-induced smooth muscle contraction after 3 mins; assay type: functional, tissue-based
Chain of Delta-type opioid receptor (Mus musculus, UniProt P32300) (P32300 whole entry): as the sequence (P32300 whole entry) above

Chain of Mu-type opioid receptor (Homo sapiens, UniProt P35372) (P35372 whole entry): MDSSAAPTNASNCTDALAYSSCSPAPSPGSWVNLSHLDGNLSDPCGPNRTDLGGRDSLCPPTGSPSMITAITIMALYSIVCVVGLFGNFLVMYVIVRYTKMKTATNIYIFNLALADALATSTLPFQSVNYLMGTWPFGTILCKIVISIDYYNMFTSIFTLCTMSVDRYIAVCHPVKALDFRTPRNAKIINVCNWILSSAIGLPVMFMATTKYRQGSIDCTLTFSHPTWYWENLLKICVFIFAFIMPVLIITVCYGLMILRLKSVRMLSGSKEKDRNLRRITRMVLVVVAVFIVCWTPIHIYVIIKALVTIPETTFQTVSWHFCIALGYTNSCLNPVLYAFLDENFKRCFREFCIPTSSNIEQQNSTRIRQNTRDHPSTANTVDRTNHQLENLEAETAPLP

In the case of Br.NC(=O)[C@@H](Cc1ccccc1)NC(=O)[C@H](Cc1ccccc1)NC(=O)[C@@H]1C[C@H](N)CN1C(=O)[C@@H](N)Cc1ccc(O)cc1, the pKi [1] was under 5.00, the Ki [2] was “Not Active” and the Ki [3] was “Not Active”. The inhibition [4] was 5.4% and the pIC50 [5] was 5.64.

Br.NC(=O)[C@@H](Cc1ccccc1)NC(=O)[C@@H](Cc1ccccc1)NC(=O)[C@@H]1C[C@H](N)CN1C(=O)[C@@H](N)Cc1ccc(O)cc1 was tested, and the pKi [1] was 5.43, the Ki [2] was “Not Active” and the Ki [3] was “Not Active”. The inhibition [4] was 0% and the inhibition [6] was 0.9%.

With Br.NC(=O)[C@H](Cc1ccccc1)NC(=O)[C@@H](Cc1ccccc1)NC(=O)[C@@H]1C[C@H](N)CN1C(=O)[C@@H](N)Cc1ccc(O)cc1 the pKi [1] was 6.12, the Ki [2] was “Not Active” and the Ki [3] was “Not Active”. The inhibition [4] was 14% and the inhibition [6] was 12%.

Work on N[C@@H](Cc1ccc(O)cc1)C(=O)N1C[C@@H]2C[C@H]1C(=O)N[C@H](Cc1ccccc1)C(=O)N[C@H](Cc1ccccc1)C(=O)N2 yielded a pKi [1] of 7.20, a pKi [2] of under 5.00 and a pKi [3] of 6.00. It also gave a pIC50 [7] of 5.85 and a pIC50 [5] of 6.32.

With Br.N[C@H]1C[C@@H](C(=O)N[C@H](Cc2ccccc2)C(=O)N[C@@H](Cc2ccccc2)C(=O)O)N(C(=O)[C@@H](N)Cc2ccc(O)cc2)C1 the pKi [1] was 6.00, the Ki [2] was “Not Active” and the Ki [3] was “Not Active”. The inhibition [4] was 3.6% and the inhibition [6] was 11%.

In the case of Br.N[C@H]1C[C@@H](C(=O)N[C@@H](Cc2ccccc2)C(=O)N[C@H](Cc2ccccc2)C(=O)O)N(C(=O)[C@@H](N)Cc2ccc(O)cc2)C1, the pKi [1] was 6.12, the Ki [2] was “Not Active” and the Ki [3] was “Not Active”. For the same molecule, the inhibition [4] was 1.3% and the inhibition [6] was 3.2%.

N[C@@H](Cc1ccc(O)cc1)C(=O)N1C[C@@H]2C[C@H]1C(=O)N[C@H](Cc1ccccc1)C(=O)N[C@@H](Cc1ccccc1)C(=O)N2 gave a pKi [1] of 7.42, a pKi [2] of under 5.00 and a pKi [3] of 6.07. For the same molecule, the pIC50 [7] was 6.02 and the pIC50 [5] was 6.48.

Br.N[C@H]1C[C@@H](C(=O)N[C@H](Cc2ccccc2)C(=O)N[C@H](Cc2ccccc2)C(=O)O)N(C(=O)[C@@H](N)Cc2ccc(O)cc2)C1 was tested, and the pKi [1] was under 5.00, the Ki [2] was “Not Active” and the pKi [3] was under 5.00. The inhibition [4] was 3.6% and the inhibition [6] was 2%.
